From patent publication US20250221991A1, “COMBINATION THERAPY FOR THE TREATMENT OF CANCER METASTASES” (University of Cincinnati, priority 2024, published 2025)
“And” between values parts separate entries of the source, which are not always exact repeats. Equal entries are not always repeated.

Legend:
MIA PaCa-2 cells [1] = assay: Soft agar colony formation, MIA PaCa-2; assay type: cell-based, human
Experimental: (§1) The capability of cells to grow under anchorage-independent conditions is a hallmark of transformation and correlates with tumor progression in vivo. The assay was performed in a 60-mm dish with a bottom layer of 2 mL 0.5% agar (Noble Agar, Sigma) in the culture medium that is designated to the cells. The bottom agar was allowed to be solidified in the biosafety cabinet. Cells were suspended in 0.2% agar for PANC-1 cells, MIA PaCa-2 cells, and B16-F10 cells, but in 0.15% agar for MDA-MB-231 cells and 4T1 cells and then plated (1×10^5 cells/2 mL/dish) on top of the bottom layer. 400 μL culture medium with or without the indicated doses of drug treatment was added to cover the top agar layer every other day over 2 weeks for PANC-1, MIA PaCa-2 cells and over 3 weeks for MDA-MB-231 cells, respectively. The colonies in five microscopic fields (top, bottom, left, right and center) of each dish were photographed. […] Each treatment was repeated thrice.

MIA PaCa-2 cells [2] = assay: Deadherent survival (WST-1, poly-HEMA vs plastic), MIA PaCa-2; assay type: cell-based, human
Experimental: (§2) Cells were seeded at a density of 10^4 cells/well in 96-well plates, either uncoated or in poly(2-hydroxyethyl methacrylate) (poly-HEMA) coated wells (3 mg of poly-HEMA in 50 μL 95% ethanol, let dry overnight, then washed twice with PBS, followed by one wash with medium before initiation of the experiment). Drugs were added in triplicates at the indicated concentrations for an incubation time of 48 h. At the 48-h time point, the indicator WST-1 was added to each well at 10% v/v final concentration. At the 60-, 80-, and 120-minute time points, the absorbance was measured at 450 nm using a MRX-TC Revelation plate reader.

MDA-MB-231 cells [3] = assay: Deadherent survival (WST-1, poly-HEMA vs plastic), MDA-MB-231; assay type: cell-based; settings: for concentration range of significant growth inhibition on poly-HEMA: deadherent cells
Experimental: as §2

PANC-1 cells [4] = assay: Soft agar colony formation, PANC-1; assay type: cell-based, human
Experimental: as §1

PANC-1 cells [5] = assay: Deadherent survival (WST-1, poly-HEMA vs plastic), PANC-1; assay type: cell-based, human
Experimental: as §2

MDA-MB-231 cells [6] = assay: Soft agar colony formation, MDA-MB-231; assay type: cell-based
Experimental: as §1

[7] = same concentration range that completely suppressed soft agar colony formation

SMILES: C[S+](C)[O-] [DMSO, dimethyl sulfoxide]
- soft agar colony frequency (MIA PaCa-2 cells [1]; 0.125%-0.25% (v/v)): without impacting
- effect on growth when plated on plastic or on poly-HEMA (MIA PaCa-2 cells [2]; [7]): no effect
- effect on growth when plated on plastic or on poly-HEMA (MDA-MB-231 cells [3]; [7]): no effect
- soft agar colony frequency (PANC-1 cells [4]; 0.125%-0.25% (v/v)): without impacting
- effect on growth when plated on plastic or on poly-HEMA (PANC-1 cells [5]; [7]): no effect

SMILES: [NH4+].[NH4+].[SH-].[SH-].[S]=[Mo]=[S] [ammonium tetrathiomolybdate]
- inhibition of soft agar colony size (MDA-MB-231 cells [6]; 0.5 μg/mL): 43%
- inhibition of soft agar colony size (MDA-MB-231 cells [6]; 1 μg/mL): 75%
- inhibition of soft agar colony size (MDA-MB-231 cells [6]; 2 μg/mL): 93%
- inhibition of soft agar colony size (MDA-MB-231 cells [6]; 4 μg/mL): 94%

SMILES: CCCCNc1cc(C(=O)O)cc(S(N)(=O)=O)c1Oc1ccccc1 [bumetanide]
- concentration range suppressing proliferation on poly-HEMA (MIA PaCa-2 cells [2]; deadherent cells): 1 to 5 µg/mL
- concentration suppressing both adherent and deadherent cells (MDA-MB-231 cells [3]; 48 h, WST-1): above 50 μg/mL
- concentration range of significant growth inhibition on poly-HEMA (MDA-MB-231 cells [3]; 48 h, WST-1): 15 to 35 µg/mL
- effect on the same cells in the adherent (plated) state (MDA-MB-231 cells [3]; in the concentration range that significantly inhibits cells on poly-HEMA): without affecting

SMILES: Cc1ccc(Nc2nccc(N(C)c3ccc4c(C)n(C)nc4c3)n2)cc1S(N)(=O)=O [pazopanib]
- concentration inhibiting soft agar colony formation (MIA PaCa-2 cells [1]): 2.1 μM and 1 μg/mL
- concentration range of significant growth inhibition on poly-HEMA (MDA-MB-231 cells [3]; 48 h, WST-1): 0.4 to 2.0 µg/mL
- concentration at which inhibition of soft agar colony formation reaches significance (MDA-MB-231 cells [6]): 0.5 μM and 0.24 μg/mL
- concentration at which inhibition of soft agar colony formation reaches significance (PANC-1 cells [4]): 0.25 μM and 0.12 μg/mL
- concentration inhibiting growth under both conditions (adherent and deadherent) (PANC-1 cells [5]; 48 h): Above 2 μg/mL
- concentration range increasing adherent cell growth (PANC-1 cells [5]; adherent cells, 48 h): 0.4 to 2 µg/mL
- starting concentration significantly decreasing growth of deadherent cells (PANC-1 cells [5]; poly-HEMA, 48 h): ≥ 0.2 µg/mL
